Settings: rat, in vivo; for AUC0-6 h / Cmax / Tmax: 6 mg/kg

Structure (SMILES)	time to reach maximum plasma concentration after administration (Sprague-Dawley, po)	Exposure Ratio AUC (Sprague-Dawley, po) [%]	Exposure Ratio Cmax (Sprague-Dawley, po) [%]	AUC0-6 h (Sprague-Dawley, po) [ng·h/mL]	Cmax (Sprague-Dawley, po) [ng/mL]	Tmax (Sprague-Dawley, po) [h]	steadiness of plasma concentration	AUC compared to dextrorphan tartrate (po)	Cmax compared to dextrorphan tartrate (po)	dextrorphan AUC0-6h, times higher compared to dextrorphan tartrate (po)	dextrorphan Cmax, times higher compared to dextrorphan tartrate (po)	oral dextrorphan bioavailability / exposure compared to dextrorphan tartrate (po)	fold increase in AUC0-6h compared to dextrorphan tartrate (Sprague-Dawley, po)	fold increase in Cmax compared to dextrorphan tartrate (Sprague-Dawley, po) [fold]	oral bioavailability compared to the other diastereomer of the same prodrug (po)
CN1CC[C@]23CCCC[C@H]2[C@H]1Cc1ccc(O)cc13 [Dextrorphan, (+)-17-methylmorphinan-3-ol]	approximately 30 minutes	–	–	–	–	–	–	–	–	–	–	–	–	–	–
CC(=O)N[C@@H](CCC(=O)O)C(=O)Oc1ccc2c(c1)[C@]13CCCC[C@@H]1C(C2)N(C)CC3 [3-(N-Ac-L-Glu)-dextrorphan]	around 2 hours	43	14	18.4	4.8	1.8	steadier	much smaller	much smaller	–	–	–	–	–	–
CC[C@@H](C)[C@@H](NC(C)=O)C(=O)Oc1ccc2c(c1)[C@]13CCCC[C@@H]1C(C2)N(C)CC3 [3-(N-Ac-D-Ile)-dextrorphan]	–	880	672	294.6	81.9	2.9	–	much smaller	much smaller	> 8 times	over 6 times	–	–	–	–
CC(=O)N[C@H](CCC(=O)O)C(=O)Oc1ccc2c(c1)[C@]13CCCC[C@@H]1C(C2)N(C)CC3 [3-(N-Ac-D-Glu)-dextrorphan]	around 2 hours	30	10	12.7	3.5	2.4	steadier	much smaller	much smaller	–	–	–	–	–	–
C[C@@H](N)C(=O)N[C@H](C)C(=O)Oc1ccc2c(c1)[C@]13CCCC[C@@H]1C(C2)N(C)CC3 [3-(D-Ala-D-Ala)-dextrorphan]	–	59	43	24.7	9.6	2.1	–	lower	smaller	–	–	lower	–	–	–
CC(=O)N[C@@H](C)C(=O)Oc1ccc2c(c1)[C@]13CCCC[C@@H]1C(C2)N(C)CC3 [3-(N-Ac-L-Ala)-dextrorphan]	–	40	35	29.6	18.2	0.7	steadier	much smaller	much smaller	–	–	decreasing bioavailability	–	–	–
CC[C@H](C)[C@H](NC(C)=O)C(=O)Oc1ccc2c(c1)[C@]13CCCC[C@@H]1C(C2)N(C)CC3 [3-(N-Ac-L-Ile)-dextrorphan]	–	–	–	27.4	13.9	2.2	–	–	–	–	–	–	–	–	–
C[C@H](N)C(=O)N[C@@H](C)C(=O)Oc1ccc2c(c1)[C@]13CCCC[C@@H]1C(C2)N(C)CC3 [3-(L-Ala-L-Ala)-dextrorphan]	–	147	217	88.3	87.3	0.8	–	larger	larger	about 1.5 times	over 2 times	–	–	–	–
CC(C)[C@@H](NC(=O)[C@@H](C)N)C(=O)Oc1ccc2c(c1)[C@]13CCCC[C@@H]1C(C2)N(C)CC3 [3-(D-Ala-D-Val)-dextrorphan]	–	–	–	–	–	–	–	larger	larger	–	–	superior	–	–	–
CC(C)[C@H](NC(=O)[C@H](N)C(C)C)C(=O)Oc1ccc2c(c1)[C@]13CCCC[C@@H]1C(C2)N(C)CC3 [3-(D-Val-D-Val)-dextrorphan]	–	–	–	–	–	–	–	larger	larger	–	–	–	about 4.5 fold	~2.7	significantly increased
CC(C)[C@H](N)C(=O)N[C@H](C(=O)Oc1ccc2c(c1)[C@]13CCCC[C@@H]1C(C2)N(C)CC3)C(C)C [3-(L-Val-L-Val)-dextrorphan]	–	85	128	78.5	98.9	0.5	–	slightly lower	–	–	–	good oral bioavailability	–	–	–
CC(=O)N[C@H](Cc1ccccc1)C(=O)Oc1ccc2c(c1)[C@]13CCCC[C@@H]1[C@H](C2)N(C)CC3 [3-(N-Ac-D-Phe)-dextrorphan]	–	30	11	19.1	4.7	5.0	much steadier	much smaller	much smaller	–	–	–	–	–	–
CC(=O)N[C@@H](C(=O)Oc1ccc2c(c1)[C@]13CCCC[C@@H]1C(C2)N(C)CC3)C(C)C [3-(N-Ac-D-Val)-dextrorphan]	–	556	180	467.4	127.7	3.0	–	higher	higher	more than 5 times	about 1.8 times	–	–	–	–
CC(=O)N[C@H](C(=O)Oc1ccc2c(c1)[C@]13CCCC[C@@H]1C(C2)N(C)CC3)C(C)C [3-(N-Ac-L-Val)-dextrorphan]	–	37	–	31.2	12.6	2.8	–	–	lower	–	–	–	–	–	–
CC(=O)N[C@@H](Cc1ccccc1)C(=O)Oc1ccc2c(c1)[C@]13CCCC[C@@H]1[C@H](C2)N(C)CC3 [3-(N-Ac-L-Phe)-dextrorphan]	–	44	18	27.7	8.0	2.8	much steadier	much smaller	much smaller	–	–	–	–	–	–
CC(=O)N[C@H](C)C(=O)Oc1ccc2c(c1)[C@]13CCCC[C@@H]1C(C2)N(C)CC3 [3-(N-Ac-D-Ala)-dextrorphan]	–	–	32	30.8	16.5	1.6	steadier	much smaller	much smaller	–	–	–	–	–	–
